In publication PMC11148078, “Potent activity of polymyxin B is associated with long-lived super-stoichiometric accumulation mediated by weak-affinity binding to lipid A” (Nature Communications, 2024):
Read-outs that look alike come from different tables or passages of the source. Bridge positions count the residues as written; N and C are the ends. Square brackets hold non-standard residues; d marks the D form. Peptide text beside a SMILES is read from it. * marks the point of attachment. X1 = CC[C@H](C)CCCCC(=O)*; Dab = NCC[C@H](N)C(=O)O

Experiments:
resistant-OMVs = assay: Three-state model fit to SPR titration, resistant-OMVs; format: binding, E. coli; conditions: resistant-OMV
Excerpt: (§1) To estimate binding constants, the three-state model was fit to binding curve titrations (Fig. 5A, B, and Table 2). Briefly, the SPR response curves of polymyxin B binding wt-OMVs (Fig. 5A) or resistant OMVs (Fig. 5B) were globally fit to Eqn. (1) by non-linear regression coupled to numerical integration of the associated ordinary differential equations (see Supplementary Information Section 2A), which define the time-dependent concentrations of each species.1 Response(t)=([PMBL]t+[nPMBL]t+2*[tPMB]t+m.[cPMB]t).MW.G.
(§2) Section 2A - Formulation of three-state model for fitting SPR data
(§3) The three-state model (Fig. 4) was formulated as a set of coupled ordinary differential equations (ODEs), with eight binding rate constants (k1-8) governing the rates of interchange of each species.
(§4) Forward rate constants k7 and k9 were eliminated from the equation set as formation of transient species tPMB and LL are irreversible.
(§5) Time at Injection 1 start = 0 s
(§6) Sample contact time = 30 s
(§7) Dissociation time interval = 35 s
(§8) Mass transport rate = kt = 46.5 1/s
(§9) Initial Species Concentrations
(§10) Coupled ODEs of Three-State Model d[L]/dt = -(k1.[PMB].[L] - k2.[PMBL])+2*k10.[LL] (S8) d[PMB]/dt = -(k1.[PMB].[L] - k2.[PMBL]) + kt’.([PMBi](t) –[PMB]) (S9) d[PMBL]/dt = (k1.[PMB]*[L] - k2.[PMBL])-(k3.[PMBL].[n] - k4.[nPMBL] ) (S10) d[n]/dt = -(k3.[PMBL].[n] - k4.[nPMBL] ) (S11) d[nPMBL]/dt = (k3.[PMBL].[n] - k4.[nPMBL])-2.(k5.[nPMBL].[nPMBL] - k6.[tPMB].[LL] ) (S12) d[tPMB]/dt = (k5.[nPMBL].[nPMBL] - k6.[tPMB].[LL] ) – k8.[tPMB] (S13) d[cPMB]/dt = 2*k8.[tPMB] (S14) d[LL]/dt = (k5.[nPMBL].[nPMBL] – k6.[tPMB].[LL]) – k10.[LL] (S15)
(§11) The initial concentrations of each species were as follows
(§12) [PMB]t=0 = [PMBL]t=0 = [nPMBL]t=0 = [tPMB]t=0 = [LL]t=0 = [cPMB]t=0 = 0 [L]t=0 = [n]t=0 = 1.56 x 10-4 (units, M) kt’ (units, m/s) was already defined in SI Section 1A. [PMBi](t) is the injected concentration profile and [PMB]t is the concentration profile at the sensing surface. [PMBi](t) follows a serial-doubling concentration of injected analyte, with a concentration profile defined by a serial step function, where each injection step represents a discrete concentration followed by a dissociation step without injected analyte and this is repeated for each concentration in the SCK dosing series.
(§13) Kintek Explorer V9.5 was used to build and fit the three-state model. This program employs its own numerical integrator9, which reports the change in concentration of each species over time.
(§14) The SPR responses for concentrations of each accumulating PMB-species estimated from Eqn (8 - 15) are summed over time in Eqn (1), repeated here.
(§15) Response(t) = ([PMBL]t+[nPMBL]t+2*[tPMB]t+m.[cPMB]t).MW.G. Eqn (1)
The concentration of [tPMB]t is multiplied by two to account for its additional mass, being composed of two PMB molecules. […]

[1] = tested on: polymyxin B-resistant E. coli PmrA^G53E cells; assay: Whole cell SPR, E. coli PmrA^G53E; format: binding
Description: Bacterial strains were grown in LB or LB with 0.2% arabinose and carbenicillin (50 μg/mL) to log phase (OD600 approximately 0.4–0.6), centrifuged for 10 min at 2500 × g (3500 rpm using a tabletop centrifuge), and re-suspended in PBS to a final OD600 of approximately 5. SPR on whole bacterial cells was performed and analyzed as described for OMVs on C1 chip, but with an additional carry-over wash prior to the capture. Regeneration of the chip after whole cell binding also required additional steps ([…] flow rate): (1) PBS supplemented with 32 mM MgCl2 for 120 s, (2) 2.5 M NaCl for 30 s, (3) 0.5% SDS (Desorb 1, Cytiva) for 60 s with carry over controls between.

wt-OMVs = assay: Three-state model fit to SPR titration, wt-OMVs; format: binding, E. coli
Excerpt: as §1, §2, §3, §4, §5, §6, §7, §8, §9, §10, §11, §12, §13, §14, §15
The concentration of [tPMB]t is multiplied by two to account for its additional mass, being composed of two PMB molecules. Insertion of PMB into the acyl-LPS matrix to form cPMB is associated with changes in the phase state of LPS10 and is also likely associated with redistribution of mass towards the sensing surface11. These changes will manifest as an increase in sensitivity of the SPR binding response when clusters are formed and are included in Eqn (1) […]
using a sensitivity coefficient (m). MW is the molecular weight of the injected analyte, in this case PMB (1203.48 Da). The constant, G, is a unit conversion factor that converts protein concentration (g/L) to response (RU) and is typically 100 (units, RU.L/g). […]

bacterial cells = conditions: different methods, ref [27]–[31], cited from earlier work
Description: Investigations into the binding of polymyxins to bacterial cells have generally relied on whole-cell and plate-based equilibrium approaches. Different methods have produced equilibrium binding constants (KDs) for polymyxin B ranging from 400 nM up to greater than 100 µM[27]–[31], which are, in some cases, multiple orders-of-magnitude higher than the reported cellular potency of these antibiotics. However, these approaches are likely complicated by the rapid kill-kinetics of polymyxins, non-specific binding of polymyxins to plate surfaces, assumptions of a simple binding mechanism, an inoculum ...

SMILES: CC[C@H](C)CCCCC(=O)N[C@@H](CCN)C(=O)N[C@H](C(=O)N[C@@H](CCN)C(=O)N[C@H]1CCNC(=O)[C@H]([C@@H](C)O)NC(=O)[C@H](CCN)NC(=O)[C@H](CCN)NC(=O)[C@H](CC(C)C)NC(=O)[C@@H](Cc2ccccc2)NC(=O)[C@H](CCN)NC1=O)[C@@H](C)O [Polymyxin B] (X1-[Dab]T[Dab][Dab][Dab][dF]L[Dab][Dab]T; lactam 4-C (inferred); N-terminus assumed)
- k3 (resistant-OMVs; first two states, max 625 nM): 335 M⁻¹ s⁻¹
- k4 (resistant-OMVs; first two states, max 625 nM): 0.0085 s⁻¹
- Kd (resistant-OMVs; fitted, first two states, max 625 nM, read-out: KD = k2/k1): 268 nM
- kt (resistant-OMVs; mass transport rate): 44.6 ms^−1
- SPR binding profile [1]: same polymyxin B binding profiles were observed
- k5 (wt-OMVs; dimerization of nPMBL, global fit, max 625 nM): 20.75 M⁻¹ s⁻¹
- k3 (wt-OMVs; membrane insertion / nPMBL formation, global fit, max 625 nM): 2233 M⁻¹ s⁻¹
- k4 (wt-OMVs; nPMBL dissociation, global fit, max 625 nM): 0.00488 s⁻¹
- relative fraction of transition state (wt-OMVs; peer review file): < 0.1%
- residence time = 1/k4 (wt-OMVs; stability of nucleates (nPMBL)): 205 s
- Kd (bacterial cells; read-out: equilibrium binding constant KD, lower end): 400 nM
- Kd (bacterial cells; read-out: equilibrium binding constant KD, upper end): > 100000 nM
